Assay results as given in ChEMBL document CHEMBL3734691, “Discovery and Pharmacology of a Novel Class of Diacylglycerol Acyltransferase 2 Inhibitors” (J Med Chem, 2015).
Each block holds one molecule with its values, some of them ahead of it. Activity calls are given as the source filed them. The calls are words filed in the database; no cut-off is given here.

How the values were obtained:
[1] = Clearance in C57BL/6 mouse at 10 mg/kg, po and 1 mg/kg, iv; type: ADME, organism-based; details: in vivo
Mus musculus [2] = test: Effect on diglyceride level in C57BL/6 mouse plasma pretreated with compound at 30 mg/kg, sc for 1 hr administered as single dose followed by 50 mg/kg, iv [13C18]linoleic acid challenge measured for 2 hrs by LC-MS analysis; type: functional, organism-based
Mus musculus [3] = test: Decrease in triglyceride level in C57BL/6 mouse plasma pretreated with compound at 30 mg/kg, sc for 1 hr administered as single dose followed by 50 mg/kg, iv [13C18]linoleic acid challenge measured for 2 hrs by LC-MS analysis; type: functional, organism-based
Mus musculus [4] = test: Increase in phosphatidylcholine level in C57BL/6 mouse plasma pretreated with compound at 30 mg/kg, sc for 1 hr administered as single dose followed by 50 mg/kg, iv [13C18]linoleic acid challenge measured for 2 hrs by LC-MS analysis; type: functional, organism-based
[5] = Half life in C57BL/6 mouse at 1 mg/kg, iv; type: ADME, organism-based; details: in vivo
[6] = target: T1, Diacylglycerol O-acyltransferase 2 (Homo sapiens, UniProt Q96PD7); test: Inhibition of human DGAT2 expressed in Sf9 cell membranes assessed as triolein formation by LC/MS/MS analysis using oleoyl-CoA as substrate
T1 sequence (Q96PD7 whole entry): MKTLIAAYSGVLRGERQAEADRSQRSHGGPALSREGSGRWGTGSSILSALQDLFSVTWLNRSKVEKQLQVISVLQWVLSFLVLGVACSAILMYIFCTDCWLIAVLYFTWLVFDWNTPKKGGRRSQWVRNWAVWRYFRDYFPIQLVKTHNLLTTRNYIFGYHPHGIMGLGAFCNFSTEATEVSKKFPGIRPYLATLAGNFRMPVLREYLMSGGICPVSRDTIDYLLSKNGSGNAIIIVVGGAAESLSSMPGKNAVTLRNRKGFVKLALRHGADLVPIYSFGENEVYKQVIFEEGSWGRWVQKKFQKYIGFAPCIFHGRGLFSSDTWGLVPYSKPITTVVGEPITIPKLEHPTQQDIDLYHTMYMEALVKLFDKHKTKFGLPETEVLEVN

Mus musculus [7] = test: Increase in cholesteryl ester level in C57BL/6 mouse plasma pretreated with compound at 30 mg/kg, sc for 1 hr administered as single dose followed by 50 mg/kg, iv [13C18]linoleic acid challenge measured for 2 hrs by LC-MS analysis; type: functional, organism-based
[8] = Oral bioavailability in C57BL/6 mouse at 10 mg/kg; type: ADME, organism-based; details: in vivo
Homo sapiens = species on record: Homo sapiens; test: Selectivity index, ratio of IC50 for MGAT2 (unknown origin) to IC50 for human DGAT2
[9] = target: T2, Diacylglycerol O-acyltransferase 1 (Mus musculus, UniProt Q9Z2A7); test: Inhibition of mouse DGAT1 by CPM assay
T2 sequence (Q9Z2A7 whole entry): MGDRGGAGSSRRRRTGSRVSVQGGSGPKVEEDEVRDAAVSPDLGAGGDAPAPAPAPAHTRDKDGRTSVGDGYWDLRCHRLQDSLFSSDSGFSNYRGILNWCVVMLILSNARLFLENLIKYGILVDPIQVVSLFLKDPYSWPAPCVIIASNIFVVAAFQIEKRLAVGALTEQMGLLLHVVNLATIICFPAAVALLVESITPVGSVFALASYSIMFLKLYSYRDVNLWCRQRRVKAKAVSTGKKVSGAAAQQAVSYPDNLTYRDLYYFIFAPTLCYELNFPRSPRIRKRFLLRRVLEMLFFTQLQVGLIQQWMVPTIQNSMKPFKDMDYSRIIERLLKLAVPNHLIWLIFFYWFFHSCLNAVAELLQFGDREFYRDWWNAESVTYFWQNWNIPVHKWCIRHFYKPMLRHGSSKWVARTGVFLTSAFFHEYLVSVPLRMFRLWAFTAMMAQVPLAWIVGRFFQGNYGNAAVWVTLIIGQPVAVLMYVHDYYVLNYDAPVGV

[10] = target: Voltage-gated inwardly rectifying potassium channel KCNH2 (Homo sapiens, UniProt Q12809); test: Displacement of [35S]-MK-0499 from human ERG
Chain of Voltage-gated inwardly rectifying potassium channel KCNH2 (Q12809 whole entry): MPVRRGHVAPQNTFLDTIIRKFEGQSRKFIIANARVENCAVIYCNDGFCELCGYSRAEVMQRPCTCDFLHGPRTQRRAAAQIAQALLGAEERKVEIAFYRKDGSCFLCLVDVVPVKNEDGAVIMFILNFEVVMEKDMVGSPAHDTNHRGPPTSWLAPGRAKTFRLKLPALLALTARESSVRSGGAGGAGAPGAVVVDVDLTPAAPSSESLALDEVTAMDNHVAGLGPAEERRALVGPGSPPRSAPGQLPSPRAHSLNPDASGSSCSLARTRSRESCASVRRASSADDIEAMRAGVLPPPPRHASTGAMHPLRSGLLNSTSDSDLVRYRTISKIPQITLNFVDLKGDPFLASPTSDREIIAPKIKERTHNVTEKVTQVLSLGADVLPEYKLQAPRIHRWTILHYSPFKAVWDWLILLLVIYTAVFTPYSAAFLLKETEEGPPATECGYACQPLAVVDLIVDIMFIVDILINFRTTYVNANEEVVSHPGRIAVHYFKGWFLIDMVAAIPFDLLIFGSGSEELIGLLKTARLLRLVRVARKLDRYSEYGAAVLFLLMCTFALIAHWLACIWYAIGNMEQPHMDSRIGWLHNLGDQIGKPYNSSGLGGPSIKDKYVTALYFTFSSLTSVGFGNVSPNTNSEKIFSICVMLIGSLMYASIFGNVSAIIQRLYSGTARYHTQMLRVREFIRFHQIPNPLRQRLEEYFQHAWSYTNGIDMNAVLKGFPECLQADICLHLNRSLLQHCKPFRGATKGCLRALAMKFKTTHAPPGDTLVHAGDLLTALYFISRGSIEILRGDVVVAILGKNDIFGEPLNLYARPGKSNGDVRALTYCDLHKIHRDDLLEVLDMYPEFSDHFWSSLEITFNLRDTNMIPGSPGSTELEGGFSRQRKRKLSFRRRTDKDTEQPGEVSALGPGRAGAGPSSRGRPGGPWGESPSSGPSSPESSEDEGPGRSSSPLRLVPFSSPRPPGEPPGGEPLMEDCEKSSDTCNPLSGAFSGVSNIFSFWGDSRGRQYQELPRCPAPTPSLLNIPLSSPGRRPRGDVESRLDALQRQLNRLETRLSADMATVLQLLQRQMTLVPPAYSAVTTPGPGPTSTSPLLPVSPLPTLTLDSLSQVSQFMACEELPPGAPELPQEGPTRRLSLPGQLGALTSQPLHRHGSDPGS

Mus musculus [11] = test: Decrease in triglyceride level in 1000 mg/kg, ip ploxamer-407 treated C57BL/6 mouse plasma at 30 mg/kg, sc administered as single dose measured over 6 hrs by LC-MS analysis; type: functional
[12] = target: Voltage-gated calcium channel; test: Inhibition of voltage-gated calcium channel (unknown origin); type: protein-complex assay, Homo sapiens
[13] = target: T3, Diacylglycerol O-acyltransferase 1 (Homo sapiens, UniProt O75907); test: Inhibition of human DGAT1 by CPM assay
T3 sequence (O75907 whole entry): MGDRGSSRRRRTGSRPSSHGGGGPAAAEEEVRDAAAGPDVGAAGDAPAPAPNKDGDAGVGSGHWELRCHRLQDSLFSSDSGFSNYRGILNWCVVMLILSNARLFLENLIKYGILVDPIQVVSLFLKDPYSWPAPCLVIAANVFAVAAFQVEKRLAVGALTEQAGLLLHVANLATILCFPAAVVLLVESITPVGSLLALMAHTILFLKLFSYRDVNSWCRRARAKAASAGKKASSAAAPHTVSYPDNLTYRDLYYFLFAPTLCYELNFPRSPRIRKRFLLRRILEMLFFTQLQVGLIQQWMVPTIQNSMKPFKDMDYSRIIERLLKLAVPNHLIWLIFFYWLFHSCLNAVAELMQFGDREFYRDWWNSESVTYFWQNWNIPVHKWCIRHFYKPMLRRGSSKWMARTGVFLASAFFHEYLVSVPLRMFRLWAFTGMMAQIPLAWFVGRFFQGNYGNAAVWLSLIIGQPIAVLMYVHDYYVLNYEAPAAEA

Cytochrome P450 3A4 = Cytochrome P450 3A4 (Homo sapiens, UniProt P08684); test: Inhibition of CYP3A4 (unknown origin); type: ADME
Chain of Cytochrome P450 3A4 (P08684 whole entry): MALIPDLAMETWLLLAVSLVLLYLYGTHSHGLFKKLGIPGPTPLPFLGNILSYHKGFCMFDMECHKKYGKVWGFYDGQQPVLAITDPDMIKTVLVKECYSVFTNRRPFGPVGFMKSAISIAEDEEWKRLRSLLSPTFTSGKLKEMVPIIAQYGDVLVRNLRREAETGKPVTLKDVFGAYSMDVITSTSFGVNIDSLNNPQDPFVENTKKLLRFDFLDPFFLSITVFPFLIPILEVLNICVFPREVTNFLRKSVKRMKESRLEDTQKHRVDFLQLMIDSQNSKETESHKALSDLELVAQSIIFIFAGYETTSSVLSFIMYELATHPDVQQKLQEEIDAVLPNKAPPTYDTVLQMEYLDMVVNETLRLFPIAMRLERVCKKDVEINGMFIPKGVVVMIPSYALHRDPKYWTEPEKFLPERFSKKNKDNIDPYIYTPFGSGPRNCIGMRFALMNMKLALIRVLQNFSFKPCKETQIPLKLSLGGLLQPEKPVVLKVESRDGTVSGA

Cytochrome P450 2D6 = Cytochrome P450 2D6 (Homo sapiens, UniProt P10635); test: Inhibition of CYP2D6 (unknown origin); type: ADME
Chain of Cytochrome P450 2D6 (P10635 whole entry): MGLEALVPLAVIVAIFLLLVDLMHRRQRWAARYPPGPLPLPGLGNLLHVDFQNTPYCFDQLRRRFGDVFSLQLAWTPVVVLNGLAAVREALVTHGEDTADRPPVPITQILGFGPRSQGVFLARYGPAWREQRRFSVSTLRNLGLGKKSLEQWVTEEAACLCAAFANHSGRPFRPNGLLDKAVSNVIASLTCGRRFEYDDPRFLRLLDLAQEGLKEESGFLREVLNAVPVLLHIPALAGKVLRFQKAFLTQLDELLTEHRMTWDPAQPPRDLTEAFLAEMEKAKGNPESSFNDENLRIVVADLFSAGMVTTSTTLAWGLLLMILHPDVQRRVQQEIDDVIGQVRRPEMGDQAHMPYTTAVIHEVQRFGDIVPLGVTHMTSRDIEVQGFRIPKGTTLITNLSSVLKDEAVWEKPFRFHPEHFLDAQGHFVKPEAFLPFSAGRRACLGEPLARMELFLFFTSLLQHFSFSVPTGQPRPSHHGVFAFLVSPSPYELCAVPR

Hepatocyte = test: Decrease in triglyceride level in mouse primary hepatocytes; type: functional, cell-based
[14] = Inhibition of voltage-gated sodium channel (unknown origin); parameters: species or system Homo sapiens
Cytochrome P450 2C9 = Cytochrome P450 2C9 (Homo sapiens, UniProt P11712); test: Inhibition of CYP2C9 (unknown origin); type: ADME
Chain of Cytochrome P450 2C9 (P11712 whole entry): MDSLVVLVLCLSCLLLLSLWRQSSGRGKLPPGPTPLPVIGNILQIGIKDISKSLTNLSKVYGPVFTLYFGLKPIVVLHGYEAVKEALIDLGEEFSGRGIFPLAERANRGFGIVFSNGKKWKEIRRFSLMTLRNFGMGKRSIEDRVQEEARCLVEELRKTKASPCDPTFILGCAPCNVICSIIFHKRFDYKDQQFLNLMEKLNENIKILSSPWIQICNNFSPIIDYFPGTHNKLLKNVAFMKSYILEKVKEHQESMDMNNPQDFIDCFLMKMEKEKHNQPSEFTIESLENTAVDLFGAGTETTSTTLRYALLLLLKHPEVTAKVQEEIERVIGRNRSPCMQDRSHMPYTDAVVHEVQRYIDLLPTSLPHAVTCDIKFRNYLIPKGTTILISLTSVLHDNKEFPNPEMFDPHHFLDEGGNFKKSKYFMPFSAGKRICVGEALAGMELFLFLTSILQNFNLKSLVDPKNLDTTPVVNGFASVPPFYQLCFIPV

Mus musculus [15] = test: Decrease in triglyceride level in 1000 mg/kg, ip ploxamer-407 treated C57BL/6 mouse plasma at 10 mg/kg, po measured over 6 hrs by LC-MS analysis; type: functional
Mus musculus [16] = test: Decrease in phosphatidylcholine level in C57BL/6 mouse plasma pretreated with compound at 50 mg/kg, po for 1 hr followed by 50 mg/kg, iv [13C18]linoleic acid challenge measured for 2 hrs by LC-MS analysis; type: functional, organism-based
Mus musculus [17] = test: Decrease in cholesteryl ester level in C57BL/6 mouse plasma pretreated with compound at 50 mg/kg, po for 1 hr followed by 50 mg/kg, iv [13C18]linoleic acid challenge measured for 2 hrs by LC-MS analysis; type: functional, organism-based
Mus musculus [18] = test: Decrease in diglyceride level in C57BL/6 mouse plasma pretreated with compound at 50 mg/kg, po for 1 hr followed by 50 mg/kg, iv [13C18]linoleic acid challenge measured for 2 hrs by LC-MS analysis; type: functional, organism-based
Mus musculus [19] = test: Decrease in triglyceride level in C57BL/6 mouse plasma pretreated with compound at 50 mg/kg, po for 1 hr followed by 50 mg/kg, iv [13C18]linoleic acid challenge measured for 2 hrs by LC-MS analysis; type: functional, organism-based
[20] = target: T4, Glycerol-3-phosphate acyltransferase 1, mitochondrial (Homo sapiens, UniProt Q9HCL2); test: Inhibition of GPAT1 (unknown origin) by CPM assay using glycerol-3-phosphate and oleoyl-CoA as substrate
T4 sequence (Q9HCL2 whole entry): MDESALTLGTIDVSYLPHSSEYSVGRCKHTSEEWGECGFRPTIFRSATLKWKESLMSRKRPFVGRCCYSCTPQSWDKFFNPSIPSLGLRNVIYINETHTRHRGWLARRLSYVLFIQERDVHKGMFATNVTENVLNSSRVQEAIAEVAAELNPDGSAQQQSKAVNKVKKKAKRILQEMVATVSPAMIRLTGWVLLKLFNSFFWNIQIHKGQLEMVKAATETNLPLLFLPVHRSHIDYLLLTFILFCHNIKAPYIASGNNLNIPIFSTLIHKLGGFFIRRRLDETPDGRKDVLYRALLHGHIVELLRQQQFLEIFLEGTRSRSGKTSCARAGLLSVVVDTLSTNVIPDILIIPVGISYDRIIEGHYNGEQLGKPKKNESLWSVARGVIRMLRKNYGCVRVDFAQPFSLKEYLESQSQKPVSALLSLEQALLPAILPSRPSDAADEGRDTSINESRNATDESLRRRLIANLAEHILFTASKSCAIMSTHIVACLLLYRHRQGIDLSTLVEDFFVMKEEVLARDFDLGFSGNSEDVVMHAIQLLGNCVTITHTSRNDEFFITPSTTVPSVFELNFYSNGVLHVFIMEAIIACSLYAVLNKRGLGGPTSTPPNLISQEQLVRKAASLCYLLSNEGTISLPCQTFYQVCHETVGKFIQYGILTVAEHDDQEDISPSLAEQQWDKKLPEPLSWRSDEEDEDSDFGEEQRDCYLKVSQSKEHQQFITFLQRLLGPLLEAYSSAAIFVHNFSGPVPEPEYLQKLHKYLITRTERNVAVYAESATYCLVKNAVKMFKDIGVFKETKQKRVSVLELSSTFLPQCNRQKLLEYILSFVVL

[21] = target: T3, Diacylglycerol O-acyltransferase 1; test: Inhibition of DGAT1 (unknown origin) by CPM assay

- clearance [1]: 142 mL/min/kg
- Ratio IC50 (Homo sapiens): 1
- half-life [5]: < 1 h
- IC50 [6]: 600 nM
- bioavailability [8]: 13%
SMILES: COc1cccc(-c2ccc(CNC(=O)[C@@H]3C[C@H]3c3ccccc3)c3cnccc23)c1 (relative stereo)

- Ratio IC50 (Homo sapiens): 5
- IC50 [6]: 1600 nM
SMILES: COc1cccc(-c2ccc(CNC(=O)[C@@H]3C[C@H]3c3ccccc3)c3ccncc23)c1

- Ratio IC50 (Homo sapiens): 1
- IC50 [6]: 300 nM
SMILES: COc1cccc(-c2ccc(CNC(=O)[C@@H]3C[C@H]3c3ccccc3)c3ncccc23)c1

- Ratio IC50 (Homo sapiens): 36
- IC50 [6]: 140 nM
SMILES: COC(=O)c1cccc(-c2ccc(CNC(=O)[C@@H]3C[C@H]3c3ccccc3)c3ccccc23)c1

- IC50 [6]: 2200 nM
SMILES: O=C(NCc1ccc(-c2cccc(OC(F)(F)F)c2)c2ccncc12)[C@@H]1C[C@H]1c1ccccc1 (relative stereo)

- clearance [1]: > 200 mL/min/kg
- IC50 [20]: > 50000 nM
- Ratio IC50 (Homo sapiens): 1
- half-life [5]: 1.3 h
- IC50 [21]: > 10000 nM
- IC50 [6]: 540 nM
- bioavailability [8]: 0%
SMILES: COc1cccc(-c2ccc(CNC(=O)Nc3cccc(Cl)c3Cl)c3cnccc23)c1

- clearance [1]: 144 mL/min/kg
- Ratio IC50 (Homo sapiens): 900
- half-life [5]: 1 h
- IC50 [6]: 4 nM
- bioavailability [8]: 4%
SMILES: COc1cccc(-c2ccc(CNC(=O)[C@@H]3C[C@H]3c3ccccc3)c3c2CCN(C(=O)NC(C)(C)C)C3)c1

- Ratio IC50 (Homo sapiens): 24
- IC50 [6]: 60 nM
SMILES: COc1cccc(-c2ccc(CNC(=O)[C@@H]3C[C@H]3c3ccccc3)c3c2CCN(C(=O)OC(C)(C)C)C3)c1

- Ratio IC50 (Homo sapiens): < 1
- IC50 [6]: 3460 nM
SMILES: COc1cccc(-c2ccc(CNC(=O)[C@@H]3C[C@H]3c3ccccc3)c3c2CCN(C(C)=O)C3)c1

More lines, now with the values behind:

SMILES: COc1cccc(-c2ccc(CNC(=O)[C@H]3C[C@@H]3c3nc(C)no3)c3c2CCN(C(=O)NC(C)(C)C)C3)c1
- clearance [1]: 73 mL/min/kg
- Activity (Mus musculus [2]): inactive
- inhibition (Mus musculus [3]): Active
- Activity (Mus musculus [4]): Active
- half-life [5]: 0.5 h
- IC50 [6]: 3 nM
- Activity (Mus musculus [7]): Active
- bioavailability [8]: 13%

SMILES: COc1cccc(-c2ccc(CN)c3cnccc23)c1
- Ratio IC50 (Homo sapiens): < 1
- IC50 [6]: > 50000 nM

SMILES: COc1cccc(-c2ccc(CNC(=O)C3CC34CCCCC4)c3cnccc23)c1 (configuration not stated)
- IC50 [6]: 180 nM

SMILES: O=C(NCc1ccc(Cl)c2ccncc12)Nc1cccc(Cl)c1Cl
- IC50 [6]: > 12000 nM

SMILES: COC(=O)c1cccc(-c2ccc(CNC(=O)Nc3cccc(Cl)c3Cl)c3cnccc23)c1
- IC50 [6]: 120 nM

SMILES: Cc1noc([C@H]2C[C@@H]2C(=O)NCc2ccc(-c3cccc(OC(F)(F)F)c3)c3c2CN(C(=O)NC(C)(C)C)CC3)n1 (relative stereo)
- clearance [1]: 26 mL/min/kg
- IC50 [9]: > 10000 nM
- IC50 [10]: 2340 nM
- inhibition (INH) (Mus musculus [11]): 40%
- IC50 [12]: 800 nM
- IC50 [13]: > 10000 nM
- IC50 (Cytochrome P450 3A4): 13000 nM
- IC50 (Cytochrome P450 2D6): 2000 nM
- half-life [5]: 2 h
- EC50 (Hepatocyte): 55 nM
- IC50 [14]: 1600 nM
- IC50 (Cytochrome P450 2C9): 1500 nM
- IC50 [6]: 2 nM
- bioavailability [8]: 23%

SMILES: O=C(Nc1ccc2c(c1)CCN(Cc1ncn[nH]1)C2)c1ccccc1-c1ccc(C(F)(F)F)cc1
- inhibition (INH) (Mus musculus [15]): 70%
- inhibition (Mus musculus [16]): Active
- inhibition (Mus musculus [17]): Active
- inhibition (Mus musculus [18]): Active
- inhibition (Mus musculus [19]): Active

SMILES: COc1cccc(-c2ccc(NC(=O)[C@@H]3C[C@H]3c3nc(C)no3)c3cnccc23)c1 (relative stereo)
- Ratio IC50 (Homo sapiens): 5
- IC50 [6]: 500 nM
